In patent publication US8546579B2, “Bicycloheteroaryl compounds as P2X7 modulators and uses thereof” (Evotec (US) Inc., priority 2006, dated 2013):

target: T1, P2X7 receptor (Homo sapiens, UniProt Q99572); assay: IL-1β release assay in differentiated THP-1 cells stimulated with BzATP (Example 9); assay type: cell-based; set-up: inhibition: dose or concentration left out as unconfirmed; settings: 0.1 μM compound; differentiated THP-1 cells, BzATP 250 uM; "*" class symbols; read-out: IL-1β % Inhib. ("*" symbols: at 0.1 μM)
T1 construct: host or cells: THP-1 cells differentiated with LPS and IFN-γ
T1 sequence (Q99572 1-595): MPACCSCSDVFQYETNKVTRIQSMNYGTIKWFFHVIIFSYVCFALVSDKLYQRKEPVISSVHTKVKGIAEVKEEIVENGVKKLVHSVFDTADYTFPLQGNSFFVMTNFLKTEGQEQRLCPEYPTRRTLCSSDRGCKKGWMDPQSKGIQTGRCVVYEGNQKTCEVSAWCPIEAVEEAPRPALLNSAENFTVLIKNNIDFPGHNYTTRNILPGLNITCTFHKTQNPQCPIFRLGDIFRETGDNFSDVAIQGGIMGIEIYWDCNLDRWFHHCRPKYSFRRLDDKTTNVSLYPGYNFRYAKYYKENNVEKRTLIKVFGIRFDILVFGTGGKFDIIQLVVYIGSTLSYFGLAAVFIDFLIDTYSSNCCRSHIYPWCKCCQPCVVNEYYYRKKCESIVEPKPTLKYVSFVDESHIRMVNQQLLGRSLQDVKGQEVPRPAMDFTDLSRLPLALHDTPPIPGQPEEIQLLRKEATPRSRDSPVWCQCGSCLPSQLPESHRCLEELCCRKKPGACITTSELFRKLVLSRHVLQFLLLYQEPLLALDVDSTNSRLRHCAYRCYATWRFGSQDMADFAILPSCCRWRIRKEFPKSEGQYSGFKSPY
Method: THP-1 cells (ATCC Cat # 285-IF-100) are plated in 96 well plates at a concentration of 200,000 cells per well and allowed to differentiate in RPMI-1640 media (ATCC Cat # 30-2001) containing 10% FBS, 100 IU/mL penicillin, 100 ug/mL streptomycin, 100 ng/mL LPS and 100 ng/mL IFN-γ for 16 hours. Following differentiation, the cells are treated for an additional 2 hours in RPMI-1640 media containing 100 IU/mL penicillin, 100 ug/mL streptomycin and fresh LPS at 100 ng/mL. The cells are then pretreated for 30 minutes with the compound of interest at the appropriate concentration in RPMI media containing 100 IU/mL penicillin, 100 ug/mL streptomycin. Following the pretreatment 2′,3′-O-(4-benzoylbenzoyl)-adenosine 5′-triphosphate (Sigma Aldrich Cat # B6396) is added to a final concentration of 250 uM and the cells are incubated for an additional 45 minutes. 30 uL of cell supernatant is then collected and IL-1β levels determined via ELISA (R&D systems Cat. # HSLB50) according to manufacturer's recommendations using the Tecan Safire plate reader. Background adjusted IL-1β levels of drug treated and non-treated cells are used to calculate the percent inhibition.
The compounds set forth in Table 1 were tested for activity in a cellular model as described herein. Specifically, cells were pretreated with differing amounts of the compound under test and released IL-1β determined as in Example 9, above. Measurements were made and IC50 values, presented in Table 2, below, were determined by fitting the data to a four parameter logistic equation using GraphPad Prism software (GraphPad Software, Inc). The equation may be expressed by the following formula: Y=Bottom+(Top−Bottom)/(1+10^((Log EC50−X)*HillSlope)) Where X is the logarithm of concentration, Y is the response and Y starts at Bottom and goes to Top with a sigmoid shape.

SMILES | inhibition at 0.1 µM
CC(c1ccccn1)n1ccc2c(NC(=O)[C@H](C)c3ccc(Cl)c(Cl)c3)cccc2c1=O (some centres unmarked) [Compound 1636] | 26 to 50%

same assay, conditions: 0.1 μM compound; differentiated THP-1 cells, BzATP 250 uM; '*' class symbols; read-out: IL-1β % Inhib. (asterisk classes, 0.1 μM)

SMILES | inhibition at 0.1 µM
CCOc1ccc(C(=O)Nc2cccc3c(=O)n(CCN(C)C)ccc23)cc1 [Compound 1146] | 0 to 25%
Cc1ccccc1CCC(=O)Nc1cccc2c(=O)n(CC(C)(C)C)ccc12 [Compound 1048] | 0 to 25%

same assay, conditions: 0.1 μM compound; differentiated THP-1 cells, BzATP 250 uM; symbols * to ****; read-out: IL-1β % Inhib. (asterisk symbols: at 0.1 μM)

SMILES | inhibition at 0.1 µM
CC(C(=O)Nc1cccc2c(=O)n(CC(C)(C)C)ccc12)c1ccccc1 (centres unmarked) [Compound 1247] | 0 to 25%

same assay, conditions: 0.3 μM compound; differentiated THP-1 cells, BzATP 250 uM; "+" class symbols; read-out: IL-1β % Inhib. @ 0.3 μM

SMILES | inhibition at 0.3 µM
CC(=O)OCCn1ccc2c(NC(=O)Cc3ccc(C(F)(F)F)cc3C(F)(F)F)cccc2c1=O [Compound 1617] | 26 to 50%

same assay, conditions: 0.3 μM compound; differentiated THP-1 cells, BzATP 250 uM; '+' class symbols; read-out: IL-1β % Inhib. @ 0.3 μM

SMILES | inhibition at 0.3 µM
O=C(Nc1cccc2c(=O)n(CCN3CCOCC3)ccc12)c1ccc(Cl)cc1Cl [Compound 1189] | 0 to 25%
CN(C)CCn1ccc2c(NC(=O)c3ccccc3Cl)cccc2c1=O [Compound 1137] | 0 to 25%
COCCn1ccc2c(NC(=O)CCc3ccc4c(c3)OCO4)cccc2c1=O [Compound 1070] | 0 to 25%
COc1cc(CC(=O)Nc2cccc3c(=O)n(CCN(C)C)ccc23)cc(OC)c1 [Compound 1164] | 0 to 25%
COc1ccc(CC(=O)Nc2cccc3c(=O)n(CC4CCOCC4)ccc23)cc1OC [Compound 1103] | 0 to 25%
O=C(Nc1cccc2c(=O)n(CC3CCOCC3)ccc12)[C@]12C[C@@H]3CC1C[C@@H](C3)C2 [Compound 1116] | 0 to 25%
Cc1ccc(C)c(CC(=O)Nc2cccc3c(=O)n(CC4CCOCC4)ccc23)c1 [Compound 1028] | 0 to 25%
Cc1cccc(C(=O)Nc2cccc3c(=O)n(CC4CCOCC4)ccc23)c1Cl [Compound 1132] | 0 to 25%
COc1ccc(C(=O)Nc2cccc3c(=O)n(Cc4cccnc4)ccc23)c(C)c1 [Compound 1073] | 0 to 25%
CN(C)CCn1ccc2c(NC(=O)[C@@]34C[C@@H]5C[C@@H](C[C@@H]3C5)C4)cccc2c1=O [Compound 1168] | 0 to 25%
COc1ccc(C(=O)Nc2cccc3c(=O)n(CC4CCOCC4)ccc23)cc1C [Compound 1133] | 0 to 25%
CCOc1ccccc1CC(=O)Nc1cccc2c(=O)n(CC3CCOCC3)ccc12 [Compound 1126] | 0 to 25%
COc1ccc(CC(=O)Nc2cccc3c(=O)n(CC4CCOCC4)ccc23)cc1C [Compound 1127] | 0 to 25%
CC(=O)OCCn1ccc2c(NC(=O)Cc3ccc(C(F)(F)F)cc3)cccc2c1=O [Compound 1016] | ≥ 76%

same assay, conditions: 0.3 μM compound; differentiated THP-1 cells, BzATP 250 uM; symbols + to ++++; read-out: IL-1β % Inhib. @ 0.3 μM

SMILES | inhibition at 0.3 µM
COCCn1ccc2c(NC(=O)CCCc3ccccc3)cccc2c1=O [Compound 1319] | 0 to 25%
O=C(Nc1cccc2c(=O)n(CCN3CCOCC3)ccc12)c1ccc2c(c1)OCCCO2 [Compound 1225] | 0 to 25%
COCCn1ccc2c(NC(=O)Cc3ccc(C)cc3)cccc2c1=O [Compound 1318] | 0 to 25%
Cc1ccc(CC(=O)Nc2cccc3c(=O)n(CC(C)(C)C)ccc23)cc1 [Compound 1262] | 0 to 25%
COCCn1ccc2c(NC(=O)c3cccc(C)c3Cl)cccc2c1=O [Compound 1339] | 0 to 25%
O=C(Cc1ccc2c(c1)OCO2)Nc1cccc2c(=O)n(Cc3cccnc3)ccc12 [Compound 1359] | 26 to 50%
COc1ccc(CC(=O)Nc2cccc3c(=O)n(CC(C)(C)C)ccc23)cc1OC [Compound 1258] | 0 to 25%
COc1ccccc1CC(=O)Nc1cccc2c(=O)n(CCN3CCOCC3)ccc12 [Compound 1206] | 0 to 25%
CC(=O)OCCn1ccc2c(NC(=O)CCc3cc(C(F)(F)F)ccc3C(F)(F)F)cccc2c1=O [Compound 1374] | ≥ 76%
Cc1ccc(C(=O)Nc2cccc3c(=O)n(CC(C)(C)C)ccc23)cc1Cl [Compound 1268] | 0 to 25%
CC(C)(C)Cn1ccc2c(NC(=O)[C@@]34C[C@@H]5C[C@@H](C[C@@H]3C5)C4)cccc2c1=O [Compound 1271] | 0 to 25%
COc1c(C)cc(C(=O)Nc2cccc3c(=O)n(CC(C)(C)C)ccc23)cc1C [Compound 1267] | 0 to 25%
COc1ccc(C(=O)Nc2cccc3c(=O)n(Cc4cccnc4)ccc23)cc1C [Compound 1371] | 0 to 25%
CN(C)CCn1ccc2c(NC(=O)CC3CCCCCC3)cccc2c1=O [Compound 1389] | 26 to 50%
Cc1cccc(CC(=O)Nc2cccc3c(=O)n(C)ccc23)c1 [Compound 1298] | 0 to 25%
Cn1ccc2c(NC(=O)c3ccc4c(c3)OCCCO4)cccc2c1=O [Compound 1305] | 0 to 25%
COc1cccc(CC(=O)Nc2cccc3c(=O)n(CC(C)(C)C)ccc23)c1 [Compound 1257] | 0 to 25%
Cc1cc(C(=O)Nc2cccc3c(=O)n(CCN4CCOCC4)ccc23)ccc1F [Compound 1231] | 0 to 25%
COc1ccc(CC(=O)Nc2cccc3c(=O)n(CCN4CCOCC4)ccc23)cc1OC [Compound 1210] | 0 to 25%

same assay, conditions: THP-1; read-out: IL-1β % Inhib.

SMILES | inhibition
O=C(CCc1ccc2c(c1)OCO2)Nc1cccc2c(=O)n(Cc3ccc(OC(F)(F)F)cc3)ccc12 [Compound 1558] | 0 to 25%
COCCn1ccc2c(NC(=O)CCc3ccccc3OC)cccc2c1=O [Compound 1432] | 0 to 25%
Cc1cc(Cl)ccc1C(=O)Nc1cccc2c(=O)n(Cc3cccnc3)ccc12 [Compound 1452] | 0 to 25%
COc1ccc(CC(=O)Nc2cccc3c(=O)n(CC4CCN(C)CC4)ccc23)cc1 [Compound 1474] | 0 to 25%
CC(C)Cc1ccc(C(=O)Nc2cccc3c(=O)n(C)ccc23)cc1 [Compound 1425] | 0 to 25%
COc1cccc(CCC(=O)Nc2cccc3c(=O)n(CC4CCN(C)CC4)ccc23)c1 [Compound 1459] | 26 to 50%
CN1CCC(Cn2ccc3c(NC(=O)CCc4cccc(Cl)c4)cccc3c2=O)CC1 [Compound 1492] | 0 to 25%
CCOc1ccc(C(=O)Nc2cccc3c(=O)n(Cc4ccc(OC(F)(F)F)cc4)ccc23)cc1 [Compound 1568] | 0 to 25%
Cc1ccccc1CCC(=O)Nc1cccc2c(=O)n(CCN3CCOCC3)ccc12 [Compound 1404] | 0 to 25%
O=C(Nc1cccc2c(=O)n(CCCN3CCCC3=O)ccc12)c1ccccc1Cl [Compound 1504] | 51 to 75%
CCOc1ccc(CC(=O)Nc2cccc3c(=O)n(CCCN4CCCC4=O)ccc23)cc1 [Compound 1523] | 0 to 25%
CN1CCC(Cn2ccc3c(NC(=O)CC4CC5CC[C@H]4C5)cccc3c2=O)CC1 (some centres unmarked) [Compound 1479] | 0 to 25%
COc1cc(OC)cc(C(=O)Nc2cccc3c(=O)n(Cc4ccc(OC(F)(F)F)cc4)ccc23)c1 [Compound 1566] | 26 to 50%
CCOc1ccc(C(=O)Nc2cccc3c(=O)n(CCCN4CCCC4=O)ccc23)cc1 [Compound 1514] | 0 to 25%
COc1cc(OC)cc(C(=O)Nc2cccc3c(=O)n(CC4CCN(C)CC4)ccc23)c1 [Compound 1464] | 0 to 25%
COCCn1ccc2c(NC(=O)c3cc(Cl)ccc3C)cccc2c1=O [Compound 1441] | 0 to 25%
CCOc1ccc(C(=O)Nc2cccc3c(=O)n(CC(C)(C)C)ccc23)cc1 [Compound 1415] | 0 to 25%

same assay, conditions: THP-1 cells, BzATP-stimulated IL-1β release, four parameter logistic fit

SMILES | IC50
CC(=O)OCCn1ccc2c(NC(=O)Cc3ccc(C(F)(F)F)cc3C(F)(F)F)cccc2c1=O [Compound 1617] | 417 nM
CC(=O)OCCn1ccc2c(NC(=O)CCc3cc(C(F)(F)F)ccc3C(F)(F)F)cccc2c1=O [Compound 1374] | 40.6 nM
CN(C)CCn1ccc2c(NC(=O)CC3CCCCCC3)cccc2c1=O [Compound 1389] | 311 nM
CC(=O)OCCn1ccc2c(NC(=O)Cc3ccc(C(F)(F)F)cc3)cccc2c1=O [Compound 1016] | 338 nM
